Legend:
Assay type in all cases: functional
[1] = Local anaesthetic activity in rat sciatic nerve assessed as time required to decrease compound action potential to 50 %
[2] = Local anaesthetic activity in rat sciatic nerve assessed as time required to decrease compound action potential to 100 %
[3] = Local anaesthetic activity in rat sciatic nerve assessed as time required to decrease compound action potential to recover to 50 %
[4] = Local anaesthetic activity in rat sciatic nerve assessed as vitality time
[5] = Local anaesthetic activity in rat sciatic nerve assessed as time required to decrease compound action potential to 50 % relative to Lidocaine; design: scale not given: the % may be the effect or the level left
[6] = Local anaesthetic activity in rat sciatic nerve assessed as time required to decrease compound action potential to 100 % relative to Lidocaine; design: scale not given: the % may be the effect or the level left
[7] = Local anaesthetic activity in rat sciatic nerve assessed as time required to decrease compound action potential to 100 % at 1.5%
[8] = Local anaesthetic activity in rat sciatic nerve assessed as time required to decrease compound action potential to 50 % at 1.5%
[9] = Local anaesthetic activity in rat sciatic nerve assessed as time required to decrease compound action potential to recover to 50 % at 1.5%
[10] = Local anaesthetic activity in rat sciatic nerve assessed as vitality time at 1.5%
[11] = Local anaesthetic activity in rat sciatic nerve assessed as time required to decrease compound action potential to 50 % at 1.5% relative to Lidocaine; design: scale not given: the % may be the effect or the level left
[12] = Local anaesthetic activity in rat sciatic nerve assessed as time required to decrease compound action potential to 100 % at 1.5% relative to Lidocaine; design: scale not given: the % may be the effect or the level left

Cc1ccc2snc(NC(=O)C(C)N3CCOCC3)c2c1 (stereo not drawn)
IT50 [1]: 2.23 min
IT100 [2]: 20 min
RT50 [3]: 60 min
VT50 [4]: 738 min
Activity [5]: 140.8%
Activity [6]: 70%

CCN(CC)CC(=O)Nc1nsc2ccccc12
IT100 [7]: 53.9 min
IT50 [8]: 12 min
RT50 [9]: 121.5 min
VT50 [10]: 600 min
Activity [11]: 26.2%
Activity [12]: 26%

Cc1ccc2snc(NC(=O)C(C)NC3CCCCC3)c2c1 (stereo not drawn)
IT50 [1]: 39 min
IT100 [2]: 42.5 min
Activity [5]: 8.1%
Activity [6]: 32.9%

CC(C(=O)Nc1nsc2ccccc12)N1CCCCC1 (stereo not drawn)
IT50 [1]: 8.9 min
IT100 [2]: 20.9 min
RT50 [3]: 58 min
VT50 [4]: 500 min
Activity [5]: 21.7%
Activity [6]: 73.7%

CCNCC(=O)Nc1nsc2ccccc12
IT50 [1]: 5 min
IT100 [2]: 24.2 min
RT50 [3]: 76 min
VT50 [4]: 600 min
Activity [5]: 62.8%
Activity [6]: 57.9%
IT100 [7]: 49.9 min
IT50 [8]: 11.5 min
RT50 [9]: 135 min
VT50 [10]: 658 min
Activity [11]: 27.3%
Activity [12]: 28.1%

CC(C(=O)Nc1nsc2ccccc12)N(C)C (stereo not drawn)
IT50 [1]: 7.4 min
IT100 [2]: 14 min
RT50 [3]: 77 min
VT50 [4]: 690 min
Activity [5]: 18.8%
Activity [6]: 70%

CCNC(C)C(=O)Nc1nsc2ccc(C)cc12 (stereo not drawn)
IT50 [1]: 4.2 min
IT100 [2]: 12.9 min
RT50 [3]: 100 min
VT50 [4]: 702 min
Activity [5]: 74.8%
Activity [6]: 108.5%

CNCC(=O)Nc1nsc2ccccc12
IT50 [1]: 10 min
IT100 [2]: 34 min
RT50 [3]: 48 min
VT50 [4]: 786 min
Activity [5]: 31.4%
Activity [6]: 41.2%

O=C(CN1CCC(c2ccccc2)CC1)Nc1nsc2ccccc12
IT50 [1]: 18.5 min
Activity [5]: 17%

CNC(C)C(=O)Nc1nsc2ccccc12 (stereo not drawn)
IT50 [1]: 12.8 min
IT100 [2]: 26.7 min
RT50 [3]: 68 min
VT50 [4]: 450 min
Activity [5]: 24.5%
Activity [6]: 121.7%

CCCNC(C)C(=O)Nc1nsc2ccccc12 (stereo not drawn)
IT50 [1]: 5.3 min
IT100 [2]: 24.1 min
RT50 [3]: 88.9 min
VT50 [4]: 750 min
Activity [5]: 31.4%
Activity [6]: 70%

CC(NC1CCCCC1)C(=O)Nc1nsc2ccccc12 (stereo not drawn)
IT50 [1]: 5.8 min
IT100 [2]: 25.3 min
RT50 [3]: 52.3 min
Activity [5]: 44.9%
Activity [6]: 63.6%

O=C(CN1CCOCC1)Nc1nsc2ccccc12
IT50 [1]: 5.5 min
IT100 [2]: 10 min
RT50 [3]: 88 min
VT50 [4]: 511 min
Activity [5]: 57.1%
Activity [6]: 140%
IT100 [7]: 19 min
IT50 [8]: 8.1 min
RT50 [9]: 40 min
VT50 [10]: 666.7 min
Activity [11]: 26.2%
Activity [12]: 26%

CCN(CC)C(C)C(=O)Nc1nsc2ccccc12 (stereo not drawn)
IT50 [1]: 3.85 min
IT100 [2]: 14.1 min
RT50 [3]: 57.7 min
VT50 [4]: 404.2 min
Activity [5]: 49.8%
Activity [6]: 84.8%

CNC(C)C(=O)Nc1nsc2ccc(C)cc12 (stereo not drawn)
IT50 [1]: 6.6 min
IT100 [2]: 20 min
RT50 [3]: 60 min
VT50 [4]: 780 min
Activity [5]: 47.6%
Activity [6]: 70%

Cc1ccc2snc(NC(=O)C(C)N3CCCC3)c2c1 (stereo not drawn)
IT50 [1]: 1.75 min
IT100 [2]: 17.5 min
RT50 [3]: 122 min
VT50 [4]: 498 min
Activity [5]: 179%
Activity [6]: 80%

O=C(CCN1CCCC1)Nc1nsc2ccccc12
IT50 [1]: 10 min
IT100 [2]: 20.4 min
RT50 [3]: 136.6 min
VT50 [4]: 870 min
Activity [5]: 31.4%
Activity [6]: 68.6%

CCNC(C)C(=O)Nc1nsc2ccccc12 (stereo not drawn)
IT50 [1]: 4.2 min
IT100 [2]: 12.9 min
RT50 [3]: 100 min
VT50 [4]: 861 min
Activity [5]: 74.8%
Activity [6]: 108.5%

CC(C(=O)Nc1nsc2ccccc12)N1CCOCC1 (stereo not drawn)
IT50 [1]: 11.8 min
IT100 [2]: 23 min
RT50 [3]: 126 min
VT50 [4]: 350 min
Activity [5]: 26.6%
Activity [6]: 60.9%

CN(C)CC(=O)Nc1nsc2ccccc12
IT50 [1]: 10.5 min
RT50 [3]: 100 min
VT50 [4]: 250 min
Activity [5]: 29.9%

CCCNCC(=O)Nc1nsc2ccccc12
IT50 [1]: 10 min
IT100 [2]: 17.5 min
RT50 [3]: 200 min
VT50 [4]: 250 min
Activity [5]: 31.4%
Activity [6]: 80%

CCNCCC(=O)Nc1nsc2ccccc12
IT50 [1]: 26.1 min
IT100 [2]: 79.5 min
RT50 [3]: 154.8 min
VT50 [4]: 400.8 min
Activity [5]: 12%
Activity [6]: 17.6%

CC(C)NCC(=O)Nc1nsc2ccccc12
IT50 [1]: 12.13 min
IT100 [2]: 30.2 min
RT50 [3]: 150 min
Activity [5]: 25.9%
Activity [6]: 46.4%

O=C(CCN1CCOCC1)Nc1nsc2ccccc12
IT50 [1]: 7 min
IT100 [2]: 17.9 min
RT50 [3]: 86 min
Activity [5]: 44.9%
Activity [6]: 78.2%

CNCCC(=O)Nc1nsc2ccccc12
IT50 [1]: 10.75 min
IT100 [2]: 20.5 min
RT50 [3]: 136 min
VT50 [4]: 839 min
Activity [5]: 29.2%
Activity [6]: 68.3%

CC(C(=O)Nc1nsc2ccccc12)N1CCCC1 (stereo not drawn)
IT50 [1]: 7.7 min
IT100 [2]: 11.6 min
RT50 [3]: 135 min
VT50 [4]: 600 min
Activity [5]: 40.8%
Activity [6]: 120.7%

CCCNC(C)C(=O)Nc1nsc2ccc(C)cc12 (stereo not drawn)
IT50 [1]: 7.4 min
IT100 [2]: 14.8 min
VT50 [4]: 365 min
Activity [5]: 23.6%
Activity [6]: 65.1%

O=C(CN1CCCC1)Nc1nsc2ccccc12
IT50 [1]: 5 min
IT100 [2]: 14 min
RT50 [3]: 105 min
VT50 [4]: 610 min
Activity [5]: 62.8%
Activity [6]: 100%
IT100 [7]: 28.3 min
IT50 [8]: 11.9 min
RT50 [9]: 101.5 min
VT50 [10]: 705.5 min
Activity [11]: 26.4%
Activity [12]: 49.5%

Cc1ccc2snc(NC(=O)C(C)N(C)C)c2c1 (stereo not drawn)
IT50 [1]: 11.6 min
IT100 [2]: 23.75 min
RT50 [3]: 162 min
VT50 [4]: 1012 min
Activity [5]: 25.7%
Activity [6]: 75.7%

Cc1ccc2snc(NC(=O)C(C)N3CCCCC3)c2c1 (stereo not drawn)
IT50 [1]: 11 min
IT100 [2]: 37 min
Activity [5]: 28.5%
Activity [6]: 37.8%

CC1CCN(CC(=O)Nc2nsc3ccccc23)CC1
IT50 [1]: 25.5 min
IT100 [2]: 37.45 min
RT50 [3]: 122 min
VT50 [4]: 930 min
Activity [5]: 12.3%
Activity [6]: 37.4%

O=C(CN1CCCCC1)Nc1nsc2ccccc12
IT50 [1]: 7 min
IT100 [2]: 16 min
RT50 [3]: 142.7 min
VT50 [4]: 500 min
Activity [5]: 44.9%
Activity [6]: 87.5%
IT100 [7]: 23.4 min
IT50 [8]: 8.05 min
RT50 [9]: 141.2 min
VT50 [10]: 555.8 min
Activity [11]: 39%
Activity [12]: 59.8%

CCN(CC)CC(=O)Nc1c(C)cccc1C [LIDOCAINE]
IT50 [1]: 3.14 min
IT100 [2]: 14 min
RT50 [3]: 48.75 min
VT50 [4]: 660 min
Activity [5]: 100%
Activity [6]: 100%
